Measured values reported in ChEMBL document CHEMBL5365543, “Benzamidine Conjugation Converts Expelled Potential Active Agents into Antifungals against Drug-Resistant Fungi” (J Med Chem, 2023).
≈ marks a conversion by molar mass, not a printed value.

What was measured:
[1] = Cytotoxicity against human HBE cells assessed as inhibition of cell growth measured after 4 hrs by MTT assay; type: toxicity, cell-based
Candida albicans [2] = assay: Antifungal activity against clinical isolate fluconazole-resistant Candida albicans Gu5 harbouring TAC1 mutation overexpressing efflux pump CdrL and Cdr2 assessed as inhibition of fungal growth measured after 24 hrs by CLSI based microtiter plate analysis; type: functional
Candida albicans [3] = assay: Antifungal activity against clinical isolate fluconazole-resistant Candida albicans CA632 assessed as inhibition of fungal growth measured after 24 hrs by CLSI based microtiter plate analysis; type: functional
Candida albicans [4] = assay: Antifungal activity against fluconazole-resistant clinical isolate Candida albicans Gu5 assessed as decrease in viable count at 2 to 4 microg/ml by colony-counting based time-killing kinetics assay; type: functional, organism-based; conditions: dose 2-4 µg/ml, time 24.0 hrs, TDE = time-dependent effect
[Candida] auris [5] = Antifungal activity against clinical isolate fluconazole-resistant Candida auris CBS12774 assessed as decrease in viable count measured after 24 hrs by colony-counting based time-killing kinetics assay; type: functional, organism-based; conditions: Candidozyma auris, dose 2-4 µg/ml
[Candida] auris [6] = Antifungal activity against clinical isolate fluconazole-resistant Candida auris CBS12774 assessed as decrease in viable count at 2 to 4 microg/ml by colony-counting based time-killing kinetics assay; type: functional, organism-based; conditions: Candidozyma auris, dose 2-4 µg/ml, time 24.0 hrs, TDE = time-dependent effect
[7] = Selectivity ratio of IC50 for cytotoxicity against human HBE cells to MIC80 for antifungal activity against clinical isolate fluconazole-resistant Candida glabrata CG2; type: toxicity, cell-based
[8] = Selectivity ratio of IC50 for cytotoxicity against human HBE cells to MIC80 for antifungal activity against clinical isolate Candida albicans YEM15 overexpressing efflux pump CdrL and Cdr2; type: toxicity, cell-based
[9] = Selectivity ratio of IC50 for cytotoxicity against human HBE cells to MIC80 for antifungal activity against clinical isolate fluconazole-resistant Candida albicans CA632; type: toxicity, cell-based
[10] = Selectivity ratio of IC50 for cytotoxicity against human HBE cells to MIC80 for antifungal activity against clinical isolate fluconazole-resistant Candida auris CBS12774; type: toxicity, cell-based
[11] = Selectivity ratio of IC50 for cytotoxicity against human HBE cells to MIC80 for antifungal activity against clinical isolate fluconazole-resistant Candida auris CBS12776; type: toxicity, cell-based
[12] = Toxicity in BALB/c mouse infected with clinical isolate fluconazole-resistant Candida albicans Gu5 assessed as animal survival rate at 6 mg/kg, ip administered on day 1 and day 3 post fungal infection measured after 7 days; type: organism-based; conditions: in vivo, 168 h, time 7 day

**Q.** What does the source list for `C=C1C(=O)[C@@]2(C)CC[C@@H]3[C@@]1(CC[C@H]1[C@@]3(C)CCC[C@@]1(C)C(=O)OCCCOc1ccc(C(=N)N)cc1)C2`?
**A.** IC50 at 4 h [1]: 16.7 µg/mL (≈ 33 µM); MIC80 (Candida albicans [2]): 2 µg/mL (≈ 3.95 µM); MIC80 (Candida albicans [3]): 1 µg/mL (≈ 1.97 µM); Activity (Candida albicans [4]): Tde; Activity ([Candida] auris [5]): Dose-Dependent Effect; Activity ([Candida] auris [6]): Tde; selectivity ratio [7]: 8; selectivity ratio [8]: 8; selectivity ratio [9]: 8; selectivity ratio [10]: 8; selectivity ratio [11]: 8; Survival [12]: 40%
